From article PMC9856672, “SGC-CAMKK2-1: A Chemical Probe for CAMKK2” (Cells, 2023) come the findings set out here.

Test [1] deals with T1, TLK1 (Homo sapiens, UniProt Q9UKI8).
T1 construct: purchased Eurofins DiscoverX KINOMEscan
Put plainly: KINOMEscan 1 μM, TLK1. It counts as binding. The conditions noted are these: 1000 nM; Entrez TLK1; read-out: Percent Control. The text has this:
(§1) Supplement cells-12-00287-s001.zip/File S2. KinomeScan data for the CAMKK2 probe and negative control.xlsx, sheet "SGC-CAMKK2-1" | column: Percent Control

For test [2], the target named is T2, HIPK2 (Homo sapiens, UniProt Q9H2X6).
T2 construct: purchased Eurofins DiscoverX KINOMEscan
T2 sequence (Q9H2X6 whole entry): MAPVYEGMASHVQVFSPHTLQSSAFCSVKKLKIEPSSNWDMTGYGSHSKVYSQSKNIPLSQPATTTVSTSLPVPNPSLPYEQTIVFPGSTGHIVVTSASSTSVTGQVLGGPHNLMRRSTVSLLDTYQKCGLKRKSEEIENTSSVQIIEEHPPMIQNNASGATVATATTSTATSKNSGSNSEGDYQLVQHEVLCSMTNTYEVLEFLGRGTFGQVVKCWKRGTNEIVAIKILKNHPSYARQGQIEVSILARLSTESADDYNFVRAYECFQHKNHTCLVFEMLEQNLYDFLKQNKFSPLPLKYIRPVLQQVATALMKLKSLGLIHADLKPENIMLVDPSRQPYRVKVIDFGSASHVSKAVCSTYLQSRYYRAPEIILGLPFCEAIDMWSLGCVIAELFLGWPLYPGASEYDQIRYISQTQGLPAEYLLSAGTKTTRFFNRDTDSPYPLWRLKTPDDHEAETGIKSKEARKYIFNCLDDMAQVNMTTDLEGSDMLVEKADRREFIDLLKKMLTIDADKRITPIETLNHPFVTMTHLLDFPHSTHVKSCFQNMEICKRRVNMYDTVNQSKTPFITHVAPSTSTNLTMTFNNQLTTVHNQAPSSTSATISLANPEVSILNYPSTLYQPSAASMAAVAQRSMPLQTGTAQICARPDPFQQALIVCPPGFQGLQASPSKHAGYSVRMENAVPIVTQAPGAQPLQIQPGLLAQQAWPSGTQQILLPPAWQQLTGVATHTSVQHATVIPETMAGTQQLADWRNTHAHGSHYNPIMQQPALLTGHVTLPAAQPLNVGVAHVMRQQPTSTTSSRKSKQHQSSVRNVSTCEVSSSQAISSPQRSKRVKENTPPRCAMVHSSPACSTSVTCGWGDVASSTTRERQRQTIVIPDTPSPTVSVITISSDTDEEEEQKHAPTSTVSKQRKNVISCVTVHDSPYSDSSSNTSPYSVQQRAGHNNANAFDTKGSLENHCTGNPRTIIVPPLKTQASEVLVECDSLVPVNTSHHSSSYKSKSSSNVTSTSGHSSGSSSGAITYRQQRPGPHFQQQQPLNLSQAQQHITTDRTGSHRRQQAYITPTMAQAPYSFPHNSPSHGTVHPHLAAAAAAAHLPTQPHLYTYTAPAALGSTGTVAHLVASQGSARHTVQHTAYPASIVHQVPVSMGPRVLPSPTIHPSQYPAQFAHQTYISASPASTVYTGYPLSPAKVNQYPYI
Put plainly: KINOMEscan 1 μM, HIPK2. It counts as binding. The note with it: 1000 nM; Entrez HIPK2; read-out: Percent Control.
Source text: as §1

Test [3] concerns the target T3, CAMK2G (Homo sapiens, UniProt Q13555).
T3 construct: purchased Eurofins DiscoverX KINOMEscan
Put plainly: KINOMEscan 1 μM, CAMK2G. It counts as binding. The conditions noted are these: 1000 nM; Entrez CAMK2G; read-out: Percent Control.
Source text: as §1

Test [4] concerns the target T4, ABL1(H396P)-phosphorylated (Homo sapiens, UniProt P00519, H396P).
T4 construct: purchased Eurofins DiscoverX KINOMEscan
Put plainly: KINOMEscan 1 μM, ABL1(H396P)-phosphorylated. It counts as binding. The conditions noted are these: 1000 nM; Entrez ABL1; read-out: Percent Control.
Source text: as §1

The target in test [5] is T5, ABL1(M351T)-phosphorylated (Homo sapiens, UniProt P00519, M351T).
T5 construct: purchased Eurofins DiscoverX KINOMEscan
Put plainly: KINOMEscan 1 μM, ABL1(M351T)-phosphorylated. Format: binding. The conditions noted are these: 1000 nM; Entrez ABL1; read-out: Percent Control.
Source text: as §1

The target in test [6] is T6, CDK8 (Homo sapiens, UniProt P49336).
T6 construct: purchased Eurofins DiscoverX KINOMEscan
Put plainly: KINOMEscan 1 μM, CDK8. Format: binding. The conditions noted are these: 1000 nM; Entrez CDK8; read-out: Percent Control.
Source text: as §1

In test [7] the target is T7, TEC (Homo sapiens, UniProt P42680).
T7 construct: purchased Eurofins DiscoverX KINOMEscan
Put plainly: KINOMEscan 1 μM, TEC. It counts as binding. The conditions noted are these: 1000 nM; Entrez TEC; read-out: Percent Control.
Source text: as §1

In test [8] the target is T8, AURKC (Homo sapiens, UniProt Q9UQB9).
T8 construct: purchased Eurofins DiscoverX KINOMEscan
The test can be described thus: KINOMEscan 1 μM, AURKC. It counts as binding. The conditions noted are these: 1000 nM; Entrez AURKC; read-out: Percent Control.
Source text: as §1

Test [9] addresses T9, PIP5K1A (Homo sapiens, UniProt Q99755).
T9 construct: purchased Eurofins DiscoverX KINOMEscan
Put plainly: DiscoverX KINOMEscan binding assay at 1 μM, PIP5K1A. The conditions noted are these: Compound Concentration 1000 nM, read-out: Percent Control.
Source text: as §1

The target in test [10] is T10, CDC2L5 (Homo sapiens, UniProt Q14004).
T10 construct: purchased Eurofins DiscoverX KINOMEscan
T10 sequence (Q14004 whole entry): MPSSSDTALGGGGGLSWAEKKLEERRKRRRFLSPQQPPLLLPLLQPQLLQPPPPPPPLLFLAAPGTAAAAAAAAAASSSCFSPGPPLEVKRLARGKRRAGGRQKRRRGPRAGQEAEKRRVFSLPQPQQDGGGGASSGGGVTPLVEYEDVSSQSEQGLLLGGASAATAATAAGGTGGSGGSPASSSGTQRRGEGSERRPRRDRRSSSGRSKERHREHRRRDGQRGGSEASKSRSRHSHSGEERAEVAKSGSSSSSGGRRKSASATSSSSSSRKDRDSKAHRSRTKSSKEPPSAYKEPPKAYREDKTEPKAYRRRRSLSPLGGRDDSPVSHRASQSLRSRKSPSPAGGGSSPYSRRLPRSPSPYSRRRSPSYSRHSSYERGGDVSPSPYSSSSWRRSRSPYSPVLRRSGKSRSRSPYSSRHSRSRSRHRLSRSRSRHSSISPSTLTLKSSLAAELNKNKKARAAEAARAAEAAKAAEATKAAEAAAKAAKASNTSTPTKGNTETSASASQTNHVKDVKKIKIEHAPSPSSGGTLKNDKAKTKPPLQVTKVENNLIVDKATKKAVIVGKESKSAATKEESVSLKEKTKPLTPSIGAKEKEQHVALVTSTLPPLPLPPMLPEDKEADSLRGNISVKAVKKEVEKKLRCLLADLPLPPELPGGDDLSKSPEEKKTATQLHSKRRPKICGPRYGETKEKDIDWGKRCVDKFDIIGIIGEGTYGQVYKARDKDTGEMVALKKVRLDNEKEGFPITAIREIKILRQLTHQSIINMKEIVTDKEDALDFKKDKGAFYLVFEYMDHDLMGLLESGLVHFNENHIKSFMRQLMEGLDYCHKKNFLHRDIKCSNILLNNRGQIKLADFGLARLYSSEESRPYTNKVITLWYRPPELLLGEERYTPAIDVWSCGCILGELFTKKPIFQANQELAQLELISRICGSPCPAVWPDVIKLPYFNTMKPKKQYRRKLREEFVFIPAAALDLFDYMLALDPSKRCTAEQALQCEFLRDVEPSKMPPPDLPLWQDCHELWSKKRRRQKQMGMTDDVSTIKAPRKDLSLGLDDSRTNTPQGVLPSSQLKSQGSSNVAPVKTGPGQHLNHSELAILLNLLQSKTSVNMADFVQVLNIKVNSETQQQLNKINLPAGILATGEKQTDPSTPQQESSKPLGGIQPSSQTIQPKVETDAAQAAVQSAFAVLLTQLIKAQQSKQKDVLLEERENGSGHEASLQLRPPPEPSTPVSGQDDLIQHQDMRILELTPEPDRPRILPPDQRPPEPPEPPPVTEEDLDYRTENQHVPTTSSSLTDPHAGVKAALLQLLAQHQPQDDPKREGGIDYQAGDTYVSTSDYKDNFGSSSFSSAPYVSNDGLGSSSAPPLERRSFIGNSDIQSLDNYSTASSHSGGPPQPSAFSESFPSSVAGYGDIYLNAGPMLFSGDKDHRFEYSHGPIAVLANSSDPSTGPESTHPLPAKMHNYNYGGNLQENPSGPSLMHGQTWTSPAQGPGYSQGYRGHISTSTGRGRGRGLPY
Put plainly: KINOMEscan 1 μM, CDC2L5. It counts as binding. The conditions noted are these: 1000 nM; Entrez CDK13; read-out: Percent Control.
Source text: as §1

Test [11] concerns the target T11, ABL1(H396P)-nonphosphorylated (Homo sapiens, UniProt P00519, H396P).
T11 construct: purchased Eurofins DiscoverX KINOMEscan
Put plainly: KINOMEscan 1 μM, ABL1(H396P)-nonphosphorylated. Format: binding. The conditions noted are these: 1000 nM; Entrez ABL1; read-out: Percent Control.
Source text: as §1

Test [12] concerns the target T12, TGFBR2 (Homo sapiens, UniProt P37173).
T12 construct: purchased Eurofins DiscoverX KINOMEscan
Put plainly: KINOMEscan 1 μM, TGFBR2. The note with it: 1000 nM; Entrez TGFBR2; read-out: Percent Control. Format: binding.
Source text: as §1

Test [13] concerns the target T13, PIK3CA (Homo sapiens, UniProt P42336).
T13 construct: purchased Eurofins DiscoverX KINOMEscan
The test can be described thus: DiscoverX KINOMEscan binding assay at 1 μM, PIK3CA. The note with it: Compound Concentration 1000 nM, read-out: Percent Control.
Source text: as §1

Test [14] deals with T14, BTK (Homo sapiens, UniProt Q06187).
T14 construct: purchased Eurofins DiscoverX KINOMEscan
Put plainly: KINOMEscan at 1 μM, BTK. Format: binding. The conditions noted are these: 1000 nM, read-out: Percent Control. From the text:
(§2) Supplement cells-12-00287-s001.zip/File S2. KinomeScan data for the CAMKK2 probe and negative control.xlsx, sheet "SGC-CAMKK2-1N" | column: Percent Control

In test [15] the target is T15, SYK (Homo sapiens, UniProt P43405).
T15 construct: purchased Eurofins DiscoverX KINOMEscan
Put plainly: KINOMEscan binding assay at 1 μM, SYK. The note with it: Compound Concentration 1000 nM; read-out: Percent Control.
Source text: as §2

Test [16] has as its target T16, EPHB3 (Homo sapiens, UniProt P54753).
T16 construct: purchased Eurofins DiscoverX KINOMEscan
Put plainly: KINOMEscan at 1 μM, EPHB3. The conditions noted are these: 1000 nM, read-out: Percent Control. Format: binding.
Source text: as §2

In test [17] the target is T17, FES (Homo sapiens, UniProt P07332).
T17 construct: purchased Eurofins DiscoverX KINOMEscan
The test can be described thus: KINOMEscan at 1 μM, FES. It counts as binding. The note with it: 1000 nM, read-out: Percent Control.
Source text: as §2

In test [18] the target is T18, CDKL5 (Homo sapiens, UniProt O76039).
T18 construct: purchased Eurofins DiscoverX KINOMEscan
The test can be described thus: KINOMEscan at 1 μM, CDKL5. It counts as binding. The note with it: 1000 nM, read-out: Percent Control.
Source text: as §2

Test [19] concerns the target T19, RSK2(Kin.Dom.1-N-terminal) (Homo sapiens, UniProt P51812).
T19 construct: RSK2(Kin.Dom.1-N-terminal); purchased Eurofins DiscoverX KINOMEscan
Put plainly: KINOMEscan at 1 μM, RSK2(Kin.Dom.1-N-terminal). Format: binding. The note with it: 1000 nM, read-out: Percent Control.
Source text: as §2

The target in test [20] is T20, CDK3 (Homo sapiens, UniProt Q00526).
T20 construct: purchased Eurofins DiscoverX KINOMEscan
T20 sequence (Q00526 whole entry): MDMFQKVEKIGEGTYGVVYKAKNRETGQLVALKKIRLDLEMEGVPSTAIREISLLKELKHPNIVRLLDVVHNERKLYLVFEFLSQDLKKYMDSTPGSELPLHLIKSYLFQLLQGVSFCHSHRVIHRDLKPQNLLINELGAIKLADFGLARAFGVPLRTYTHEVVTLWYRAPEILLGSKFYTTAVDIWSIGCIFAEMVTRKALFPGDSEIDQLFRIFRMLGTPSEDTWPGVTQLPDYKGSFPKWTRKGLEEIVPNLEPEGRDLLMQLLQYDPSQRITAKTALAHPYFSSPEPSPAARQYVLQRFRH
Put plainly: KINOMEscan at 1 μM, CDK3. It counts as binding. The note with it: 1000 nM, read-out: Percent Control.
Source text: as §2

The target in test [21] is T21, NIM1 (Homo sapiens, UniProt Q8IY84).
T21 construct: purchased Eurofins DiscoverX KINOMEscan
The test can be described thus: KINOMEscan at 1 μM, NIM1. It counts as binding. The conditions noted are these: 1000 nM, read-out: Percent Control.
Source text: as §2

For test [22], the target named is T22, MLK3 (Homo sapiens, UniProt Q16584).
T22 construct: purchased Eurofins DiscoverX KINOMEscan
Put plainly: KINOMEscan binding assay at 1 μM, MLK3. The note with it: Compound Concentration 1000 nM; read-out: Percent Control.
Source text: as §2

Test [23] addresses T23, DCAMKL2 (Homo sapiens, UniProt Q8N568).
T23 construct: purchased Eurofins DiscoverX KINOMEscan
Put plainly: KINOMEscan at 1 μM, DCAMKL2. It counts as binding. The note with it: 1000 nM, read-out: Percent Control.
Source text: as §2

Test [24] has as its target T2, HIPK2. Put plainly: KINOMEscan at 1 μM, HIPK2. It counts as binding. The conditions noted are these: 1000 nM, read-out: Percent Control.
Source text: as §2

The target of test [25] is T24, CSF1R (Homo sapiens, UniProt P07333).
T24 construct: purchased Eurofins DiscoverX KINOMEscan
The test can be described thus: KINOMEscan at 1 μM, CSF1R. It counts as binding. The note with it: 1000 nM, read-out: Percent Control.
Source text: as §2

The target in test [26] is T25, PIK3C2B (Homo sapiens, UniProt O00750).
T25 construct: purchased Eurofins DiscoverX KINOMEscan
The test can be described thus: KINOMEscan at 1 μM, PIK3C2B. The conditions noted are these: 1000 nM, read-out: Percent Control. Format: binding.
Source text: as §2

Test [27] relates to EGFR(L747-T751del,Sins). Put plainly: KINOMEscan binding assay at 1 μM, EGFR(L747-T751del,Sins). Further details: species or system human. The conditions noted are these: Compound Concentration 1000 nM.
Source text: as §2

Test [28] deals with T26, CDK4-cyclinD3 (Homo sapiens, UniProt P11802).
T26 construct: purchased Eurofins DiscoverX KINOMEscan
Put plainly: KINOMEscan at 1 μM, CDK4-cyclinD3. It counts as binding. The note with it: 1000 nM, read-out: Percent Control.
Source text: as §2

Test [29] addresses T27, SGK2 (Homo sapiens, UniProt Q9HBY8).
T27 construct: purchased Eurofins DiscoverX KINOMEscan
Put plainly: KINOMEscan at 1 μM, SGK2. It counts as binding. The note with it: 1000 nM, read-out: Percent Control.
Source text: as §2

In test [30] the target is T28, SRC (Homo sapiens, UniProt P12931).
T28 construct: purchased Eurofins DiscoverX KINOMEscan
Put plainly: KINOMEscan at 1 μM, SRC. Format: binding. The note with it: 1000 nM, read-out: Percent Control.
Source text: as §2

The subject of test [31] is FLT3(ITD,D835V). The test can be described thus: KINOMEscan binding assay at 1 μM, FLT3(ITD,D835V). Further details: species or system human. The conditions noted are these: Compound Concentration 1000 nM.
Source text: as §2

For test [32], the target named is T29, LCK (Homo sapiens, UniProt P06239).
T29 construct: purchased Eurofins DiscoverX KINOMEscan
The test can be described thus: KINOMEscan binding assay at 1 μM, LCK. The conditions noted are these: Compound Concentration 1000 nM; read-out: Percent Control.
Source text: as §2

Test [33] addresses T30, ROS1 (Homo sapiens, UniProt P08922).
T30 construct: purchased Eurofins DiscoverX KINOMEscan
The test can be described thus: KINOMEscan binding assay at 1 μM, ROS1. The conditions noted are these: Compound Concentration 1000 nM; read-out: Percent Control.
Source text: as §2

For test [34], the target named is T31, TSSK3 (Homo sapiens, UniProt Q96PN8).
T31 construct: purchased Eurofins DiscoverX KINOMEscan
T31 sequence (Q96PN8 whole entry): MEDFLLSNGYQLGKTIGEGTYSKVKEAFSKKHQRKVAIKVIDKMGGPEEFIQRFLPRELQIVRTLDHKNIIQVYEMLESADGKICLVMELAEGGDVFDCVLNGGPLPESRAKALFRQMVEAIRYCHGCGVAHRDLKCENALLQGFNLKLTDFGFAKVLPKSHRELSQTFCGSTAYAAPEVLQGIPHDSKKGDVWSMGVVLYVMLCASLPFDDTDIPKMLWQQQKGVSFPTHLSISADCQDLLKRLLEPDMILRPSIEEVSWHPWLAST
The test can be described thus: KINOMEscan at 1 μM, TSSK3. Format: binding. The conditions noted are these: 1000 nM, read-out: Percent Control.
Source text: as §2

Test [35] has as its target T32, ULK1 (Homo sapiens, UniProt O75385).
T32 construct: purchased Eurofins DiscoverX KINOMEscan
The test can be described thus: KINOMEscan at 1 μM, ULK1. Format: binding. The note with it: 1000 nM, read-out: Percent Control.
Source text: as §2

T16 sequence (P54753 34-998): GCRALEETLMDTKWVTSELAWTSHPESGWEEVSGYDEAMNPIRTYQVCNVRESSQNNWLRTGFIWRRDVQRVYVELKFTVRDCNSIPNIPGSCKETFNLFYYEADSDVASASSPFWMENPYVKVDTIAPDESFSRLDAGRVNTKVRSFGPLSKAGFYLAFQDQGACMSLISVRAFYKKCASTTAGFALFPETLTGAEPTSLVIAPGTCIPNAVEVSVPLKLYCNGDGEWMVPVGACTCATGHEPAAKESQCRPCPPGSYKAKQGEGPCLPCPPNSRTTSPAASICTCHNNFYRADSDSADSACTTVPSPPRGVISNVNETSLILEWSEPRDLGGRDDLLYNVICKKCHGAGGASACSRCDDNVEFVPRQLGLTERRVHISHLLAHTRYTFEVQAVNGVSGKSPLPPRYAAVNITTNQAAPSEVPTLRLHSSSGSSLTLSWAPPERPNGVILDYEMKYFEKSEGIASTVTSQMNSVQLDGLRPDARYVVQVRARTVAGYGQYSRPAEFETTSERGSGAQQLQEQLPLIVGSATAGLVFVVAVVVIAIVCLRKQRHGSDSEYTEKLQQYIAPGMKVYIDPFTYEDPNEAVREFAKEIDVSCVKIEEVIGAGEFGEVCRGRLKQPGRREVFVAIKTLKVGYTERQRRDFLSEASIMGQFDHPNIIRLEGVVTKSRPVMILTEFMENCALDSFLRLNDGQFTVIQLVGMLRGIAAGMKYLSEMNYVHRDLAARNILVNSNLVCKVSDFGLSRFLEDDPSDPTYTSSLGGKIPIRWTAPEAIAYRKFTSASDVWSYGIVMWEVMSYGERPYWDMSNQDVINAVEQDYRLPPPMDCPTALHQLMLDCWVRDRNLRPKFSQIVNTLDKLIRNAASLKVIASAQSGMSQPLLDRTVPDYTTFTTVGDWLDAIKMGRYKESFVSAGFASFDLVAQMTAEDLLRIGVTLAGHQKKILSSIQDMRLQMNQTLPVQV
T27 sequence (Q9HBY8 whole entry): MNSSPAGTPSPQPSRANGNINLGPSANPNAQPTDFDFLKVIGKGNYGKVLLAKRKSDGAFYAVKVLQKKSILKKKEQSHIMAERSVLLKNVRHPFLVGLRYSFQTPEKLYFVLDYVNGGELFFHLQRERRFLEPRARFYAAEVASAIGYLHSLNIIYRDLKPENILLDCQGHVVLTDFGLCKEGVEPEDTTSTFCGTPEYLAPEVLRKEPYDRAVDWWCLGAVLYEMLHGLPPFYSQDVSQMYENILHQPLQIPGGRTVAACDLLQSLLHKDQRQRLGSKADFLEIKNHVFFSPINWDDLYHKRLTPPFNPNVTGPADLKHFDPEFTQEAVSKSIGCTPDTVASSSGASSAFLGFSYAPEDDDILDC
T19 sequence (P51812 1-397 limits assumed): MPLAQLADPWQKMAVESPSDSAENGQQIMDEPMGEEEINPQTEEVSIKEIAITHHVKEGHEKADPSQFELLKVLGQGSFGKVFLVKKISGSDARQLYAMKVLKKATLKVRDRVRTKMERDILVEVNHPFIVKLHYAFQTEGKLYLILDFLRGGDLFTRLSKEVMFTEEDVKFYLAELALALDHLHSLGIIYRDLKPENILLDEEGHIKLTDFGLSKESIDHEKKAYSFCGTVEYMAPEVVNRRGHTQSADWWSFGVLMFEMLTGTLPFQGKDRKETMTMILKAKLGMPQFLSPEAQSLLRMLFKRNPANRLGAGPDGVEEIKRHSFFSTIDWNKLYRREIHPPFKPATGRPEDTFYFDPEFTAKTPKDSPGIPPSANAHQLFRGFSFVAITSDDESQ

Consider `Cc1cccc(-c2cnc3occ(-c4ccc(C(=O)O)c(C5CCCC5)c4)c3c2)c1` [SGC-CAMKK2-1 (YL-36)], for which the remaining binding at 1 µM in test [1] amounted to 92%; in test [2], 100%; in test [3], 100%; in test [4], 77%; in test [5] it was 100%; in test [6] it was 72%. The remaining binding at 1 µM is 95% in test [7]; 99% in test [8]; 100% in test [9]; 100% in test [10]; 100% in test [11]; 91% in test [12]. In addition, the remaining binding at 1 µM in [13] was 100%.
In the case of `O=C(O)c1ccc(-c2coc3ncc(-c4ccccc4)cc23)cc1Cl` [SGC-CAMKK2-1N (UNC-YL-83)], the remaining binding at 1 µM in test [14] was determined as 60%; in test [15], 100%; in [16] it was 53%; in [17] it was 88%; in [18], 100%; in test [19] it was 88%. Moreover, the remaining binding at 1 µM was found to be 100% in [20]; 81% in test [21]; 100% in test [22]; 100% in test [23]; 77% in test [24]; 100% in [25]. The remaining binding at 1 µM in [26] was found to be 91%; in test [28], 87%; in test [29] it was 73%; in test [30], 97%; in test [32], 100%; in test [33], 100%. Also, the remaining binding at 1 µM in test [34] came to 65%; in [35], 66%. Also, the “Percent Control” value in [27] and in test [31] was 100% in each case.
